Data on one substance can be found in patent publication US4485100A, “Elastase inhibitors, a process for their preparation and medicaments containing these inhibitors” (Bayer Aktiengesellschaft, priority 1982, dated 1984).

The assay has as its system Wistar rats. Briefly: Aerosil-induced inflammatory reaction, paw swelling. Format: in vivo, rat. Particulars: treated 15 hours after noxa, 21 hour value. The method, then: The inflammatory reaction was induced by intraplantary injection of 0.1 ml of a 2% Aerosil suspension into a hind paw of Wistar rats weighing 130-160 g. The inhibitors according to the invention used for the treatment of the inflammatory reaction were dissolved in 0.9% sodium chloride solution in a concentration of 10-20 mg/ml. The experimental animals were treated by intraperitoneal, subcutaneous or intravenous injection of 0.5-1.0 ml of the solution of the inhibitors 15 hours after the inflammatory noxa had been set. The swelling of the inflamed paw, which is a measure of the severity of the inflammatory reaction, was followed with respect to time using a Kemper antiphlogmeter. The 21 hour value after the induction of inflammation (=6 hours after injection of the inhibitors according to the invention) was determined to ascertain the dose/effect relationship.

In the case of “basic pancreatic trypsin inhibitor [BPTI]”, the “Inhibition of the inflammatory reaction, swelling of inflamed paw” value is listed as “does not inhibit the inflammatory reaction”.
